In test [1] the target is T1, α7 nAChRs (Homo sapiens, UniProt P36544). Nature of the test: cell-based. The settings on record: Choline EC50 ± SEM at PNU120596-α7 nAChRs.
Test [2] deals with T1, α7 nAChRs. Nature of the test: cell-based. The settings on record: Choline EC50 ± SEM at TQS-α7 nAChRs.

SMILES strings stand for the structures.

T1 sequence (P36544 23-502): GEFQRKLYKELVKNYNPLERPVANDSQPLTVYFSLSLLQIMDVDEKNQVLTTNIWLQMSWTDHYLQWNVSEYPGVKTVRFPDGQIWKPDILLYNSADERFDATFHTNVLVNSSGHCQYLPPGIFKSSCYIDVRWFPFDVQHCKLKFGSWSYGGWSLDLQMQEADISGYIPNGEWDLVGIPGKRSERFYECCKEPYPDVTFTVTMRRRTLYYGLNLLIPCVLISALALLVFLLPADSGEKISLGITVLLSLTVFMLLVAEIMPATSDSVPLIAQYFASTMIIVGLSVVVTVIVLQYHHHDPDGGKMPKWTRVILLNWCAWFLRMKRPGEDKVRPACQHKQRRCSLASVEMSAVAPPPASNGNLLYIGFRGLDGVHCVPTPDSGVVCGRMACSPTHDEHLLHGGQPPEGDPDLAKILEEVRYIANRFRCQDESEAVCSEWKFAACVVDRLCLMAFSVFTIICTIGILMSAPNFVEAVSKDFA

In the case of `C[N+](C)(C)CCO` [Choline, reference compound], the values for the EC50 on α7 nAChRs [1] and on α7 nAChRs [2] were 3 ± 0.26 µM and 9 ± 0.9 µM, respectively.

The values are drawn from article PMC8692984 (Frontiers in Pharmacology, 2021).
